The values that follow are results of earlier work, collected in US20190030061A1, “COBALAMIN COMPOSITIONS AND USE THEREOF FOR IMPROVING COGNITIVE FUNCTION” (NOVA SOUTHEASTERN UNIVERSITY, priority 2016, published 2019).

The subject of this series is neuronal cells.

Turning to Amyloid Beta, the GSH levels result is “decrease” and the cysteine uptake entry is reported as “decrease”.

Turning to IGF1: insulin-like growth factor 1, the GSH levels entry is “increased” and the cysteine uptake result is “stimulates”.
